# Measured values: PubChem BioAssay (NCI)
#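 Protocol summary: plate cells (96-well), add compound at 5 concentrations, incubate 48 h, interpolate endpoints linearly. GI50 is the concentration that inhibits growth by half. TGI: concentration producing complete growth inhibition.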
# Key:
# Assay in all cases: NCI anticancer screen, dose series, 48 h
# SK-MEL-28 melanoma = tested on: SK-MEL-28 melanoma
# UACC-62 melanoma = tested on: UACC-62 melanoma
# UO-31 renal = tested on: UO-31 renal
# BT-549 breast = tested on: BT-549 breast
# SF-268 CNS = tested on: SF-268 CNS
# NCI-H23 lung = tested on: NCI-H23 lung
# PC-3 prostate = tested on: PC-3 prostate
# OVCAR-8 ovarian = tested on: OVCAR-8 ovarian
SMILES,GI50 (SK-MEL-28 melanoma) [µM],TGI (SK-MEL-28 melanoma) [µM],GI50 (UACC-62 melanoma) [µM],TGI (UACC-62 melanoma) [µM],GI50 (UO-31 renal) [µM],TGI (UO-31 renal) [µM],GI50 (BT-549 breast) [µM],TGI (BT-549 breast) [µM],GI50 (SF-268 CNS) [µM],TGI (SF-268 CNS) [µM],GI50 (NCI-H23 lung) [µM],TGI (NCI-H23 lung) [µM],GI50 (PC-3 prostate) [µM],TGI (PC-3 prostate) [µM],GI50 (OVCAR-8 ovarian) [µM],TGI (OVCAR-8 ovarian) [µM]
CCCCCCCCCCC/C=C\C[C@H](O)C/C=C1/C(=O)C=C[C@@H]1C/C=C\CCCC(=O)OC,0.84,2.31,0.553,1.33,1.1,4.67,0.75,1.8,0.939,3.97,0.687,1.58,0.836,2.76,0.966,4.64
NS(=O)(=O)c1ccc(NCc2cnc3ccccc3n2)cc1,–,> 100,–,> 100,–,> 100,–,> 100,–,> 100,–,> 100,–,> 100,–,> 100
O=c1c2c(c3ccccc3n1-c1ccccc1)NC(=S)NC2c1ccc(Cl)cc1 (centres undefined),5.73,32.5,1.49,10.6,3.22,42.7,3.73,26,3.28,> 100,2.74,50.7,2.68,> 100,4.01,> 100
O=C(NNc1ccc(F)cc1)C1CCC(CNS(=O)(=O)c2ccc(Cl)c(Cl)c2)CC1 (centres undefined),> 50,> 50,1.98,23.4,16.8,> 50,19.1,> 50,4.76,> 50,–,–,6.3,39.5,8.79,35.6
Cn1cc(-c2csc(-c3cn(CCCCN4CCCCC4)c4ccc(F)cc34)n2)c2cccnc21,–,–,–,–,–,–,1.67,3.13,1.68,3.32,1.69,3.2,–,–,–,–
Cc1ccc(/C=C/C(=N/N=C(N)N)c2ccccc2)cc1,3.95,15.8,2.65,11.9,3.75,17.2,–,–,4.13,16.3,2.76,11.8,3.32,16.9,2.98,10.9
COc1cc(/C=C2\Oc3cc(OCCCN4CCCC4)ccc3C2=O)cc(OC)c1,4.12,16,2.78,11.7,4.76,18,8.76,21.7,6.1,23.9,4.75,18.7,4.52,18.1,3.71,15.4
CCCCCCCCCCCCCCCC(=O)N[C@H](/C=C/[C@H](O)CCCCCCCCCCCCC)CO,> 100,> 100,> 100,> 100,> 100,> 100,> 100,> 100,> 100,> 100,> 100,> 100,> 100,> 100,> 100,> 100
O=S1(=O)NC2CCC3NS(=O)(=O)NC4CCC(N1)N4S(=O)(=O)N23 (centres undefined),–,> 100,–,> 100,–,> 100,–,> 100,–,> 100,–,> 100,–,> 100,–,> 100
C[C@]12CC[C@H]3[C@@H](CCC4=CC(=O)CC[C@@]43C)[C@@H]1CC[C@@H]2C(=O)COS(=O)(=O)c1ccc(Br)cc1,–,43.5,–,37.8,–,3.5,–,50.5,–,34.6,–,8.62,–,23,–,14.3
CCOc1ccc2c(C)cc(=O)oc2c1,–,> 100,–,> 100,–,> 100,–,> 100,–,> 100,–,> 100,–,> 100,–,> 100
COc1cccc(-n2cc(-c3nc(Nc4cc(C)[nH]n4)c4ccccc4n3)nn2)c1,6.05,13.9,2.86,11.3,0.187,5.39,7.04,13.5,5.39,13.8,6.28,22.4,3.48,11.9,2.88,11.7
CO[C@]12C=C/C(=C(/C(=O)OCc3cccnc3)C(=O)CCCCCCCC[C@@]3(OC)C=C/C(=C(/C(=O)OCc4cccnc4)C(=O)CCCCCCCC1)O3)O2,1.37,6.45,–,–,1.21,4.34,1.51,4.29,1.47,6.53,0.79,1.87,1.74,> 50,0.959,> 50
N#Cc1ccsc1NC(=O)COC(=O)c1cccc(S(=O)(=O)N2CCc3ccccc32)c1,22.4,> 100,32,> 100,41.2,> 100,34,> 100,13.4,> 100,38.9,> 100,27.1,> 100,–,–
N.N.O=P([O-])([O-])CN(CCN(CP(=O)([O-])[O-])CP(=O)([O-])[O-])CP(=O)([O-])[O-].[Pt+2],> 100,> 100,> 100,> 100,> 100,> 100,–,–,> 100,> 100,> 100,> 100,–,–,> 100,> 100
Nc1ccccc1NC(=O)c1ccc(CN2CCC/C(=C\c3ccccn3)C2=O)cc1,–,–,0.411,2.35,1.24,15.9,3.2,> 100,2.96,13,2.11,> 100,1.33,> 100,0.878,> 100
CN(C)CCC=C1c2ccccc2C(C)(C)c2ccccc21,2.05,4.31,11.6,27,4.8,20.7,–,–,14.7,27.8,14,28.9,10.4,24.3,18.6,37.6
